Measured values: patent publication US7205403B2, “8-Heteroaryl xanthine adenosine A2B receptor antagonists” (King Pharmaceuticals Research and Development, Inc., priority 2002, dated 2007)
“Also recorded” adds a separate entry of the source. Like-named read-outs stand apart in the source and are kept apart here.

Tests used:
[1] = target: T1, human A2A adenosine receptor (Homo sapiens, UniProt P29274); experiment: [3H]ZM241385 binding to human A2A receptors expressed in CHO cells; conditions: for Ki: read-out: Ki, [3H]ZM241385 binding to human A2A receptors expressed in CHO cells
T1 construct: expressed in transfected cells; host or cells: CHO cells (membranes)
T1 sequence (P29274 whole entry): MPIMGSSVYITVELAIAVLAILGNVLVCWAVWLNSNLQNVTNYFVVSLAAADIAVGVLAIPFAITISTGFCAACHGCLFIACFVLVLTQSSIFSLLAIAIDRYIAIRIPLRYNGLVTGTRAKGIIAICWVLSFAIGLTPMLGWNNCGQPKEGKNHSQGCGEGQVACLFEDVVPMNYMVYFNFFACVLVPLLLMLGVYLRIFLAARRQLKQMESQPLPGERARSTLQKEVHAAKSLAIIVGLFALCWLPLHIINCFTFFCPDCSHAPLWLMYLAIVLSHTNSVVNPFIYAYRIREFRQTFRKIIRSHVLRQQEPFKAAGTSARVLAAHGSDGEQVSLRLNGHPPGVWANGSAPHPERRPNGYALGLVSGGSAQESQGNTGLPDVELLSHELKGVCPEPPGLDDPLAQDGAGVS
Procedure: (§1) The cells were grown adherently and maintained in Dulbecco's modified Eagle's medium with nutrient mixture F12 without nucleosides at 37° C. in 5% CO2/95% air. The cells were washed with phosphate-buffered saline and scraped off flasks in ice cold hypotonic buffer ([…] Tris HCl, 2 mM EDTA, pH 7.4). The cell suspension was homogenized with a Polytron and the homogenate was centrifuged for 30 minutes at 48,000 g. The resultant membrane pellet was re-suspended in 50 mM Tris HCl buffer at pH 7.4 for A1 adenosine receptors; in 50 mM Tris HCl 10 mM MgCl, at pH 7.4 for A2A adenosine receptors; in 50 mM Tris HCl, 10 mM MgCl2, 1 mM EDTA, at pH 7.4 for A3 adenosine receptors and were utilized for binding assays.
(§2) The filter bound radioactivity was counted on Top Count (efficiency 57%) with Micro-Scint 20.
(§3) The filter bound radioactivity was counted on a Top Count brand Microplate Scintillation Counter (efficiency 57%) with Micro-Scint 20. […] Inhibitory binding constant. […] Results and Discussion

[2] = target: T2, human A2B adenosine receptor (Homo sapiens, UniProt P29275); experiment: [3H]DPCPX binding to human A2B receptors expressed in HEK293 cells; design: host or cells: HEK 293 cells (membranes); conditions: geometric mean (95% confidence interval); >1000 = no appreciable binding; read-out: Ki, [3H]DPCPX binding to human A2B receptors expressed in HEK293 cells
T2 sequence (P29275 1-332): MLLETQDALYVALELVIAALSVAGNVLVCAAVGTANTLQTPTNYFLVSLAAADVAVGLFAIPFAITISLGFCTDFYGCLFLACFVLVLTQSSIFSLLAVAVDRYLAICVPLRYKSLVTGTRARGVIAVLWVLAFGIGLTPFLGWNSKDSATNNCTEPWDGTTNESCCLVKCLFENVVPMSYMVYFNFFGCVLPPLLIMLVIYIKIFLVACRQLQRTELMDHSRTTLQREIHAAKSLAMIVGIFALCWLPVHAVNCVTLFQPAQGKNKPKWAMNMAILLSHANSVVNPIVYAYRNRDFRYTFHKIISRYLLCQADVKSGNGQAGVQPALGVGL
Procedure: HEK 293 cells transfected with the human recombinant A2B adenosine receptor were obtained from Receptor Biology, Inc. (Beltsville, Md. USA).
Binding of 1 [^3H]-DPCPX to HEK 293 cells transfected with the human recombinant A2B adenosine receptors was performed according to the method described by Varani et al., 2000. In particular, assays were carried out for 60 minutes at 25° C. in 100 μl of […] Tris HCl buffer, […] MgCl2, 1 mM EDTA, 0.1 mM benzamidine pH 7.4, 2 IU/ml adenosine deaminase containing 40 nM [^3H]-DPCPX, diluted membranes (20 μg of protein/assay) and at least 6–8 different concentration of tested compounds.
as §2, §3

[3] = target: T3, human A3 adenosine receptor (Homo sapiens, UniProt P0DMS8); experiment: [3H]MRE3008F20 binding to human A3 receptors expressed in CHO cells
T3 construct: expressed in transfected cells; host or cells: CHO cells (membranes)
T3 sequence (P0DMS8 1-318): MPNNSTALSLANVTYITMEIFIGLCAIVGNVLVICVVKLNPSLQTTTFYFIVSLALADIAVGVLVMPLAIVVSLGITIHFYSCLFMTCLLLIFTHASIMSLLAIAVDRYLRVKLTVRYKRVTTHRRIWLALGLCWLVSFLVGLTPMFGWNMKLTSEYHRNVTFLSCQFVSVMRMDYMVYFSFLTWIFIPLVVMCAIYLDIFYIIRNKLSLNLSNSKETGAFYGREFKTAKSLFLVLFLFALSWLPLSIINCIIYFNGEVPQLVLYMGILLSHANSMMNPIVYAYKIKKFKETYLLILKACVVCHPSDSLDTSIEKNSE
Procedure: as §1
Binding of [^3H]-MRE3008-F20 to CHO cells transfected with the human recombinant A3 adenosine receptors was performed according to Varani et al., 2000. Competition experiments were carried out in duplicate in a final volume of 250 μl in test tubes containing 1 nM [^3H]-MRE3008-F20, 50 mM Tris HCl buffer, […] MgCl2, pH 7.4 and 100 μl of diluted membranes (50 μg of protein/assay) and at least 6–8 different concentrations of examined ligands for 120 minutes at 4° C.
as §2, §3

[4] = target: T4, human A1 adenosine receptor (Homo sapiens, UniProt P30542); experiment: [3H]DPCPX binding to human A1 receptors expressed in CHO cells
T4 construct: expressed in transfected cells; host or cells: CHO cells (membranes)
T4 sequence (P30542 1-326): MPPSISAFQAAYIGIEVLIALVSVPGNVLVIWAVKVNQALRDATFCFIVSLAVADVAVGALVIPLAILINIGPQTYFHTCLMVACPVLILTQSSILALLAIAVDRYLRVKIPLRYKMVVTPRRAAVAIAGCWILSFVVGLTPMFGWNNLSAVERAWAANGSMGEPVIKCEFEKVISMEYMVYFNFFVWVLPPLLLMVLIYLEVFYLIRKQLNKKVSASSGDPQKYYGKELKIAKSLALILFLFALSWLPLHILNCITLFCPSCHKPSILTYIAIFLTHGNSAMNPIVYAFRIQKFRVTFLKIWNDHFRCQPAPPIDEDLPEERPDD
Procedure: as §1
Displacement experiments were performed for 120 minutes at 25° C. in 200 μl of buffer containing 1 nM ^3H]-DPCPX 20 μl of diluted membranes (50 μg of protein/assay) and at least 6 to 8 different concentrations of examined compounds.
as §2, §3

[5] = geometric mean (95% confidence interval), >1000 = no appreciable binding

SMILES	Ki [1] [nM]	Ki [2] [nM]	Ki [3] [nM]	Ki [4, 5] [nM]	Ki [4] [nM]	Ki, [3H]ZM241385 binding to human A2A receptors expressed in CHO cells [1, 5]	Ki, [3H]MRE3008F20 binding to human A3 receptors expressed in CHO cells [3, 5]	Ki, [3H]DPCPX binding to human A1 receptors expressed in CHO cells [4, 5]
CC(C)Cn1c(=O)c2[nH]c(-c3cc(OCC(=O)Nc4ccc(Br)cc4)nn3C)nc2n(CC(C)C)c1=O [AS67, 2-{[5-(1,3-diisobutyl-2,6-dioxo-2,3,6,9-tetrahydro-1H-purin-8-yl)-1-methyl-1H-pyrazol-3-yl]oxy}-N-(4-bromophenyl)acetamide]	> 1000	132	> 1000	2430	–	–	–	–
CCCn1c(=O)c2[nH]c(-c3cc(OCC(=O)Nc4ccc(Cl)c(Cl)c4)nn3C)nc2n(CCC)c1=O [AS100, 1,3-di-n-propyl-8-{5-[(3,4-chloro-phenylcarbamoyl)-methoxy]-2-methyl-2H-pyrazole-3-yl}-xanthine]	> 1000	16	> 1000	300	–	–	–	–
CCCn1c(=O)c2nc(-c3cc(OCC(=O)Nc4ccc(Br)cc4)n(C)n3)[nH]c2n(CCC)c1=O [AS60, N-(4-bromophenyl)-2-{[3-(2,6-dioxo-1,3-dipropyl-2,3,6,9-tetrahydro-1H-purin-8-yl)-1-methyl-1H-pyrazol-5-yl]oxy}acetamide]	> 1000	93	> 1000	168	–	–	–	–
CCCn1c(=O)c2[nH]c(-c3cc(OCC(=O)Nc4ccc(C)c(C)c4)nn3C)nc2n(CCC)c1=O [AS99, 1,3-di-n-propyl-8-{5-[(3,4-dimethyl-phenylcarbamoyl)-methoxy]-2-methyl-2H-pyrazole-3-yl}-xanthine]	> 1000	10	> 1000	700	–	–	–	–
CCCn1c(=O)c2[nH]c(-c3cc(OCC(=O)N4CCN(c5ccccc5)CC4)nn3C)nc2n(CCC)c1=O [AS70, 1,3-di-n-propyl-8-{5-[2-oxo-2-(4-phenyl-piperazin-1-yl)-ethoxy]-2-methyl-2H-pyrazole-3-yl}-xanthine]	> 1000	15	> 1000	250	–	–	–	–
CCCn1c(=O)c2[nH]c(-c3cc(NC(=O)CCCNC(=O)OC(C)(C)C)nn3C)nc2n(CCC)c1=O [AS9, tert-butyl 4-{[5-(2,6-dioxo-1,3-dipropyl-2,3,6,7-tetrahydro-1H-purin-8-yl)-1-methyl-1H-pyrazol-3-yl]amino}-4-oxobutylcarbamate]	> 1000	> 1000	> 1000	–	> 1000	–	–	–
CC(C)Cn1c(=O)c2nc(-c3cc(OCC(=O)Nc4ccc(F)cc4)nn3C)[nH]c2n(CC(C)C)c1=O [AS66, 2-{[5-(1,3-diisobutyl-2,6-dioxo-2,3,6,9-tetrahydro-1H-purin-8-yl)-1-methyl-1H-pyrazol-3-yl]oxy}-N-(4-fluorophenyl)acetamide]	–	303	–	467	–	–	–	–
CCCn1c(=O)c2[nH]c(-c3cc(OCC(=O)N4CCN(Cc5ccccc5)CC4)nn3C)nc2n(CCC)c1=O [AS90]	–	85	–	810	–	–	–	–
CCCn1c(=O)c2[nH]c(-c3cc(N)n(C)n3)nc2n(CCC)c1=O [AS37, 8-(5-amino-1-methyl-1H-pyrazol-3-yl)-1,3-dipropyl-3,7-dihydro-1H-purine-2,6-dione]	–	58	–	140	–	–	–	–

Now from value to molecule, other results behind:

Ki [1] [nM]	Ki [2] [nM]	Ki [3] [nM]	Ki [4, 5] [nM]	Ki [4] [nM]	SMILES	Ki, [3H]ZM241385 binding to human A2A receptors expressed in CHO cells [1, 5]	Ki, [3H]MRE3008F20 binding to human A3 receptors expressed in CHO cells [3, 5]	Ki, [3H]DPCPX binding to human A1 receptors expressed in CHO cells [4, 5]
> 1000	78	> 1000	–	–	CCCn1c(=O)c2[nH]c(-c3cc(NC(=O)Cc4ccc([N+](=O)[O-])cc4)nn3C)nc2n(CCC)c1=O [AS15, N-[5-(2,6-dioxo-1,3-dipropyl-2,3,6,9-tetrahydro-1H-purin-8-yl)-1-methyl-1H-pyrazol-3-yl]-2-(4-nitrophenyl)acetamide]	no appreciable affinity; also recorded: without significant binding	no appreciable affinity; also recorded: without significant binding	no appreciable affinity; also recorded: without significant binding
–	74	–	1000	–	CCCn1c(=O)c2[nH]c(-c3cc(OCC(=O)Nc4ccc(C(C)CC)cc4)nn3C)nc2n(CCC)c1=O (stereo not shown) [AS91, 1,3-di-n-propyl-8-{5-[(4-sec-butyl-phenylcarbamoyl)-methoxy]-2-methyl-2H-pyrazole-3-yl}-xanthine]	–	–	–
> 1000	190	> 1000	746	–	CCCn1c(=O)c2[nH]c(-c3cc(NC(=O)Cc4ccc(C(F)(F)F)cc4)nn3C)nc2n(CCC)c1=O [AS32, N-[5-(2,6-dioxo-1,3-dipropyl-2,3,6,9-tetrahydro-1H-purin-8-yl)-1-methyl-1H-pyrazol-3-yl]-2-[4-(trifluoromethyl)phenyl]acetamide]	–	–	–
> 1000	50	> 1000	3230	–	CCCn1c(=O)c2[nH]c(-c3cc(NC(=O)Cc4cccc(F)c4)nn3C)nc2n(CCC)c1=O [AS25, N-[5-(2,6-dioxo-1,3-dipropyl-2,3,6,9-tetrahydro-1H-purin-8-yl)-1-methyl-1H-pyrazol-3-yl]-2-(3-fluorophenyl)acetamide]	–	–	–
> 1000	111	> 1000	163	–	CCCn1c(=O)c2[nH]c(-c3cc(NC(=O)Cc4ccc(OCc5ccc([N+](=O)[O-])cc5)cc4)nn3C)nc2n(CCC)c1=O [AS31, N-[5-(2,6-dioxo-1,3-dipropyl-2,3,6,9-tetrahydro-1H-purin-8-yl)-1-methyl-1H-pyrazol-3-yl]-2-(4-{4-nitro-benzyloxy}phenyl)acetamide]	–	–	–
> 1000	130	> 1000	1900	–	CCCn1c(=O)c2[nH]c(-c3cc(NC(=O)Cc4ccc(F)c(F)c4)nn3C)nc2n(CCC)c1=O [AS43, N-[5-(2,6-dioxo-1,3-dipropyl-2,3,6,9-tetrahydro-1H-purin-8-yl)-1-methyl-1H-pyrazol-3-yl]-2-(3,4-difluorophenyl)acetamide]	–	–	–
> 1000	160	> 1000	4480	–	CCCn1c(=O)c2[nH]c(-c3cc(NC(=O)Cc4cccc(Cl)c4)nn3C)nc2n(CCC)c1=O [AS24, N-[5-(2,6-dioxo-1,3-dipropyl-2,3,6,9-tetrahydro-1H-purin-8-yl)-1-methyl-1H-pyrazol-3-yl]-2-(3-chlorophenyl)acetamide]	–	–	–
> 1000	90	> 1000	1990	–	CCCn1c(=O)c2[nH]c(-c3cc(NC(=O)Nc4cccc(OC)c4)nn3C)nc2n(CCC)c1=O [AS55, N-[5-(2,6-dioxo-1,3-dipropyl-2,3,6,7-tetrahydro-1H-purin-8-yl)-1-methyl-1H-pyrazol-3-yl]-N'-(3-methoxyphenyl)urea]	–	–	–
–	41	–	955	–	CCCn1c(=O)c2[nH]c(-c3cc(OCC(=O)Nc4ccncc4)nn3C)nc2n(CCC)c1=O [AS89]	–	–	–
